Structures can show the parent of a compound that is named as a salt.
Experiments:
Human Thrombin = Human Thrombin (Homo sapiens, UniProt P00734); experiment: biochemical; settings: read-out: Kass Human Thrombin (converted)
human or animal plasma [1] = experiment: Anticoagulation determination in plasma: prothrombin time (PT); type: biochemical; settings: concentration doubling prothrombin time
In short: (§1)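 Compounds spiked over a concentration range into citrated human, dog or rat plasma. PT used Thromboplastin-C; APTT used Actin reagent 120 s then 0.02 M CaCl2; TT used bovine thrombin 10 NIH units/mL. Concentration doubling clotting time estimated by linear extrapolation.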

Trypsin = molecular target: T1, Trypsin (Bos taurus, UniProt P00760); experiment: biochemical; design: species or system Bovine; settings: read-out: Kass Trypsin (converted)
T1 sequence (P00760 24-246): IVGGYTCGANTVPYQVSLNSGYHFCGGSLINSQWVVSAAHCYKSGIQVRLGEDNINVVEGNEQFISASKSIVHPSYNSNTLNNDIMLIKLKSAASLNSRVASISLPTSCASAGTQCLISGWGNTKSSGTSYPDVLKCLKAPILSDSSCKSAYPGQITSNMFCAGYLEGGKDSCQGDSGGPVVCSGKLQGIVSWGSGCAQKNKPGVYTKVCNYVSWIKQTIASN
In short: (§2)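 Bovine trypsin and human factor Xa amidase activity measured chromogenically, following the human thrombin procedure. Substrates: N-Benzoyl-Ile-Glu-Gly-Arg-p-nitroanilide for factor Xa and N-Benzoyl-Phe-Val-Arg-p-nitroanilide for trypsin. Used for selectivity profiling.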

t-PA = t-PA (Homo sapiens, UniProt P00750); experiment: biochemical; settings: read-out: Kass t-PA (converted)
Experimental: (§3) By substantially following the procedures described above for human thrombin, and using other human blood coagulation system serine proteases and proteases of the fibrinolytic system with the appropriate chromogenic substrates, identified below, selectivity of the compounds of the present invention with respect to the coagulation factor serine proteases and with respect to the fibrinolytic system serine proteases are evaluated as well as their substantial lack of interference with serine proteases of the fibrinolytic system. Thrombin inhibitors preferably should spare fibrinolysis induced by urokinase, tissue plasminogen activator (t-PA) and streptokinase. This would be important to the therapeutic use of such agents as an adjunct to streptokinase, t-PA or urokinase thrombolytic therapy and to the use of such agents as an endogenous fibrinolysis-sparing (with respect to t-PA and urokinase) antithrombotic agent. In addition to the lack of interference with the amidase activity of the fibrinolytic proteases, such fibrinolytic system sparing can be studied by the use of human plasma clots and their lysis by the respective fibrinolytic plasminogen activators.
(§4) Human plasmin is purchased from Boehringer Mannheim, Indianapolis, Indiana; nt-PA is purchased as single chain activity reference from American Diagnostica, Greenwich, Connecticut; modified-t-PA6 (mt-PA6) is prepared at Eli Lilly and Company by procedure known in the art (See, Burck, et al., J. Biol. Chem., 265, […] (1990). Plasmin chromogenic substrate H-D-Val-Leu-Lys-p-nitroanilide and tissue plasminogen activator (t-PA) substrate H-D-Ile-Pro-Arg-p-nitroanilide are purchased from Kabi Vitrum, Stockholm, Sweden.

Plasmin = molecular target: T2, Plasmin (Homo sapiens, UniProt P00747); experiment: biochemical; settings: read-out: Kass Plasmin (converted)
T2 construct: Human plasmin is purchased; purchased Boehringer Mannheim, Indianapolis, Indiana
Experimental: as §3, §4

human or animal plasma [2] = experiment: Anticoagulation determination in plasma: thrombin time (TT); type: biochemical; settings: concentration doubling thrombin time
In short: as §1

factor Xa = factor Xa (Homo sapiens, UniProt P00742); experiment: biochemical; settings: read-out: Kass Xa (converted)
In short: as §2

human or animal plasma [3] = experiment: Anticoagulation determination in plasma: activated partial thromboplastin time (APTT); type: biochemical; settings: concentration doubling activated partial thromboplastin time
In short: as §1

T2 sequence (P00747 581-810 limits assumed): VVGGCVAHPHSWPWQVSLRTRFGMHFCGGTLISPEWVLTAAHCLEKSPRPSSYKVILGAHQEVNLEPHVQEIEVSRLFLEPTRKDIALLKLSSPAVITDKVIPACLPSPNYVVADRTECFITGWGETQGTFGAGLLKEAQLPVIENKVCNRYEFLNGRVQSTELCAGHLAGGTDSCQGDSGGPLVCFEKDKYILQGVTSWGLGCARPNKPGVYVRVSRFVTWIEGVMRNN
T2 sequence (P00747 97-580 partner limits assumed): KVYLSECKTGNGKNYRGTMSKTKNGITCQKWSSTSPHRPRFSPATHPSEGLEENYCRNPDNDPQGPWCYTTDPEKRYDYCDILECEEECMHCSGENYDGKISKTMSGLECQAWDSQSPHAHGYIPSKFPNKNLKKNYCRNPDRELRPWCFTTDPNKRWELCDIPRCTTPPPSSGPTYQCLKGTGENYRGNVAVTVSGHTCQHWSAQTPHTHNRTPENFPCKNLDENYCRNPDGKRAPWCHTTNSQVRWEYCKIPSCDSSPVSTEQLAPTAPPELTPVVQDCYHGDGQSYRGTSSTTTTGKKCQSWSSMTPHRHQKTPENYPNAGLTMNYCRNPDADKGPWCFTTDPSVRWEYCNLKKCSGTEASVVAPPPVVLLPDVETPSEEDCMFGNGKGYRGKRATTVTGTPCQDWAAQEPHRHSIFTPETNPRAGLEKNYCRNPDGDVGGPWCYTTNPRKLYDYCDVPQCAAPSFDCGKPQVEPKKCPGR
Chain of t-PA (P00750 36-562): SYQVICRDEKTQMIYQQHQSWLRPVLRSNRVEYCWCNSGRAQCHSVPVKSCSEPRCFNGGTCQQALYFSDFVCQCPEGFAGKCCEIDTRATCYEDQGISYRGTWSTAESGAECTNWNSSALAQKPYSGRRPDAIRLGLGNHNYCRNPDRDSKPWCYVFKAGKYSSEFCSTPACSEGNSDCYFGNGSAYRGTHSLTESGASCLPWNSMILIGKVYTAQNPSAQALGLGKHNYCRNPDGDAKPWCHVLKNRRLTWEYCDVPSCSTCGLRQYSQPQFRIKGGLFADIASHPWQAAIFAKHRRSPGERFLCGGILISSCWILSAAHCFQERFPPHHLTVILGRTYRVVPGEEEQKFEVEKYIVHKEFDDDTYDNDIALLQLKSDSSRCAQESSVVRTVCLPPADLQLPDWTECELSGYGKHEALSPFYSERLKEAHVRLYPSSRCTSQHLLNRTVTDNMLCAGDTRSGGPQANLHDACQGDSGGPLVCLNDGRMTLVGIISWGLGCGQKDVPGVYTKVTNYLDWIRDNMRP
Chain of factor Xa (P00742 235-488 limits assumed): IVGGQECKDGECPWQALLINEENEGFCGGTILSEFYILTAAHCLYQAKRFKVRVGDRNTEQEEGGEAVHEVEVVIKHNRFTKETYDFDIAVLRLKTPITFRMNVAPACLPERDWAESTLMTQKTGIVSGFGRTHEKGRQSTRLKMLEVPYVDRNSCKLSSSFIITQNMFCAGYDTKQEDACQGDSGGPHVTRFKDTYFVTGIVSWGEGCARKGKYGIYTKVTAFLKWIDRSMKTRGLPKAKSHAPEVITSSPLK
Chain of factor Xa (P00742 41-179 partner limits assumed): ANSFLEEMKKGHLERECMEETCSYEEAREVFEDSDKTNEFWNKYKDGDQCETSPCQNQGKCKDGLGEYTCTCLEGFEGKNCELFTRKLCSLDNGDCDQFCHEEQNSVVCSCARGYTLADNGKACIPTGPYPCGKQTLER

| Compound | Kd (Human Thrombin) [µM] | Human Plasma Anticoagulation 2x Clotting time (ng/mL) PT (human or animal plasma [1]) | Kd (Trypsin) [µM] | Kd (t-PA) [µM] | Kd (Plasmin) [µM] | Human Plasma Anticoagulation 2x Clotting time (ng/mL) TT (human or animal plasma [2]) | Kd (factor Xa) [µM] | Human Plasma Anticoagulation 2x Clotting time (ng/mL) APTT (human or animal plasma [3]) |
| --- | --- | --- | --- | --- | --- | --- | --- | --- |
| N=C(N)c1cccc(CCNC(=O)[C@@H]2CCCN2C(=O)[C@@H]2NCC[C@@H]3CCCC[C@@H]32)c1 [Example 29, 1-Piq-Pro-m-NHCH2CH2-C6H4C(=NH)NH2·2HCl] | 1.32 | 15.800 ng/mL | 50 | > 1000 | > 1000 | 750 ng/mL | 50 | 9,800 ng/mL |
| CCS(=O)(=O)N[C@H](Cc1ccccc1)C(=O)N1CCC[C@H]1C(=O)NCCCc1ccc(C(=N)N)cc1 [Example 30, EtSO2-D-Phe-Pro-p-NHCH2CH2CH2-C6H4C(=NH)NH2·HCl] | 1.82 | 14,400 ng/mL | 33.3 | > 1000 | > 1000 | 1,000 ng/mL | 50 | 14,000 ng/mL |
| N=C(N)NCCCCNC(=O)[C@@H]1CCCN1C(=O)[C@@H]1NCC[C@H]2CCCC[C@H]21 [Example 61, N-[4-[(aminoiminomethyl)amino]butyl]-1-[[(4aR,8aR)-decahydro-1(R)-isoquinolinyl]carbonyl]-1-prolinamide trihydrochloride] | 0.0159 | 756 ng/mL | 1 | 125 | 250 | 45 ng/mL | 33.3 | 679 ng/mL |
| O=C(O)CN[C@H](CC1CCCCC1)C(=O)N1CCC[C@H]1C(=O)NCCC1=CCNCC1 [Example 59, HO2CCH2-D-Cha-Pro-4-NHCH2CH2-3,4-dehydro-piperidine·HCl] | 0.909 | 7,000 ng/mL | 4.76 | > 1000 | > 1000 | 420 ng/mL | > 1000 | 5,500 ng/mL |
| CCS(=O)(=O)N[C@H](Cc1ccccc1)C(=O)N1CCC[C@H]1C(=O)NCCCc1cccc(C(=N)N)c1 [Example 31, EtSO2-D-Phe-Pro-m-NHCH2CH2CH2-C6H4C(=NH)NH2·HCl] | 14.3 | 30,000 ng/mL | 20 | > 1000 | > 1000 | 10,800 ng/mL | 7.14 | 34,500 ng/mL |
| O=C(O)CN[C@H](CC1CCCCC1)C(=O)N1CCC[C@H]1C(=O)NCCC1CCNCC1 [Example 54, HO2CCH2-D-Cha-Pro-4-NHCH2CH2-piperidine·HCl] | 0.357 | 2,200 ng/mL | 1.92 | > 1000 | 100 | 140 ng/mL | > 1000 | 3,300 ng/mL |
| N=C(N)c1cccc(CNC(=O)[C@@H]2CCCN2C(=O)[C@@H]2NCC[C@@H]3CCCC[C@@H]32)c1 [Example 25, D-1-Piq-Pro-m-NHCH2-C6H4C(=NH)NH2·HCl] | 2.33 | 40,400 ng/mL | 100 | 100 | > 1000 | 1,430 ng/mL | > 1000 | 34,600 ng/mL |
| N=C(N)c1ccc(CNC(=O)[C@@H]2CCCN2C(=O)[C@H]2CCCCN2)cc1 [Example 17, D-hPro-Pro-p-NHCH2C6H4C(NH)NH2·HCl] | 0.0303 | 400 ng/mL | 0.263 | 294 | 41.7 | 26 ng/mL | 20.4 | 370 ng/mL |
| N=C(N)c1ccc(CNC(=O)[C@@H]2CCCN2C(=O)[C@@H](CC2CCCCC2)NCCC(=O)O)cc1 [Example 52, HOOCCH2CH2-D-Cha-Pro-p-NHCH2C6H4C(NH)NH2·HCl] | 0.00143 | 170 ng/mL | 0.0213 | 100 | 9.09 | 6 ng/mL | 2.17 | 80 ng/mL |
| N=C(N)c1ccc(CNC(=O)[C@@H]2CCCN2C(=O)[C@H]2C[C@H]3CCCC[C@H]3CN2)cc1 [Example 19, D-3-Piq-Pro-p-NHCH2C6H4C(NH)NH2·3HCl] | 0.0909 | 540 ng/mL | 0.0244 | 179 | 6.25 | 58 ng/mL | 7.14 | 300 ng/mL |
| N=C(N)c1cccc(CNC(=O)[C@@H]2CCCN2C(=O)[C@H](N)Cc2ccccc2)c1 [Example 16, D-Phe-Pro-m-NHCH2C6H4C(NH)NH2·0.75HCl] | 1.03 | 8,500 ng/mL | 50 | 833 | 588 | 650 ng/mL | 196 | 8,600 ng/mL |
| CCS(=O)(=O)N[C@H](Cc1ccccc1)C(=O)N1CCC[C@H]1C(=O)NCCc1cccc(C(=N)N)c1 [Example 27, EtSO2-D-Phe-Pro-m-NHCH2CH2-C6H4C(=NH)NH2·HCl] | 3.45 | 27,000 ng/mL | 50 | 50 | > 1000 | 1,940 ng/mL | 50 | 27,800 ng/mL |
| N=C(N)c1cccc(CCCNC(=O)[C@@H]2CCCN2C(=O)[C@@H]2NCC[C@@H]3CCCC[C@@H]32)c1 [Example 33, 1-Piq-Pro-m-NHCH2CH2CH2-C6H4C(=NH)NH2·HCl] | 25 | 70,900 ng/mL | 50 | > 1000 | > 1000 | 18,900 ng/mL | 25 | 59,300 ng/mL |
| N=C(N)c1ccc(CCNC(=O)[C@@H]2CCCN2C(=O)[C@@H]2NCC[C@@H]3CCCC[C@@H]32)cc1 [Example 28, 1-Piq-Pro-p-NHCH2CH2-C6H4C(=NH)NH2·2HCl] | 1.05 | 8,300 ng/mL | 9.09 | > 1000 | > 1000 | 520 ng/mL | 100 | 8,100 ng/mL |
| N=C(N)c1ccc(CNC(=O)[C@@H]2CCCN2C(=O)[C@@H]2NCC[C@@H]3CCCC[C@@H]32)cc1 [Example 18, 1-Piq-Pro-p-NHCH2C6H4C(NH)NH2·2HCl] | 0.00556 | 170 ng/mL | 0.0714 | 106 | 11.8 | 7 ng/mL | 4.76 | 79 ng/mL |
| CCS(=O)(=O)N[C@@H](C(=O)N1[C@H](C(=O)NCc2ccc(C(=N)N)cc2)C[C@@H]2CCCC[C@@H]21)c1ccccc1 (relative stereo) [Example 44, EtSO2-Phg-cis-Ohi-p-NHCH2C6H4C(NH)NH2. HCl] | 0.00159 | 170 ng/mL | 0.000385 | 25 | 0.556 | 4. ng/mL | 1.52 | 100 ng/mL |
